The source made the active and inactive calls.
Molecular target: T1, Corticotropin-releasing factor receptor 2/Corticotropin-releasing factor-binding protein (Homo sapiens, UniProt P24387+Q13324)
T1 sequence (Q13324 whole entry): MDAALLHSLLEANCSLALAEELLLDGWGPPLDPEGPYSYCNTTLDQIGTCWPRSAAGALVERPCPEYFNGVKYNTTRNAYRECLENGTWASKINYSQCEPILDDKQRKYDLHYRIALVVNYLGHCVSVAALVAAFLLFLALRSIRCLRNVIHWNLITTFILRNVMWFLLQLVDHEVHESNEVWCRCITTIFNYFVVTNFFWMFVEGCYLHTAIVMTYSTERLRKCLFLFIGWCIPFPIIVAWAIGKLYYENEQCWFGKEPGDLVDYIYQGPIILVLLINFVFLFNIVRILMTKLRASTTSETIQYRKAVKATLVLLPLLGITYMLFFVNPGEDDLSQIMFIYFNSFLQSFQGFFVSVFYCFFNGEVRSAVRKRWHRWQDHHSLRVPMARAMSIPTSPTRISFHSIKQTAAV
T1 sequence (P24387 whole entry): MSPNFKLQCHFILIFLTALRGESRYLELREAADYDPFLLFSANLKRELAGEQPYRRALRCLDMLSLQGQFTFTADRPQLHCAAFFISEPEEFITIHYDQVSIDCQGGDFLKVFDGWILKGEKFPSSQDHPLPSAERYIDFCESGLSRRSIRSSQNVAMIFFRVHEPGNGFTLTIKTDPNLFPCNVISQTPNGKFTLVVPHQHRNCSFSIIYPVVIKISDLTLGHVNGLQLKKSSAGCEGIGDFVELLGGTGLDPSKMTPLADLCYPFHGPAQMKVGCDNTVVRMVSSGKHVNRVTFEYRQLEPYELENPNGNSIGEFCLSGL
Assay: Dose Response confirmation of uHTS hits for small molecule antagonists of the CRF-binding protein and CRF-R2 receptor complex.
Type: functional
Settings: read-out: IC50_Mean

| IC50 | SMILES |
| --- | --- |
| > 47.1 µM (inactive) | CSc1ccccc1NC(=O)c1cc(CC(C)C)on1 |
| > 47.1 µM (inactive) | Cc1cc(=O)n2nc(N3CCC(C(=O)Nc4c(F)c(F)c(F)c(F)c4F)CC3)sc2n1 |
| > 47.1 µM (inactive) | Cc1cc([N+](=O)[O-])c2ccccc2c1NS(=O)(=O)c1ccccc1 |
| > 47.1 µM (inactive) | O=C(COc1ccc(S(=O)(=O)NC2CCCCC2)cc1Cl)NCc1cccnc1 |
| > 47.1 µM (inactive) | Cc1ccc(C(=O)N(Cc2sccc2C)C2CCS(=O)(=O)C2)cc1 (centres undefined) |
| > 47.1 µM (inactive) | COc1cccc(CN2CCN(c3cccc(C(F)(F)F)c3)CC2)c1OC |
| > 47.1 µM (inactive) | COc1ccc(Cl)cc1C(=O)NNC(=O)COC(=O)c1cccs1 |

System: P388/ADR
Assay: cells
Type: functional
Settings: Mus musculus

| SMILES | GI50 |
| --- | --- |
| O=C1C2=C(C3=NCCc4c[nH]c1c43)c1c(Br)cc(Br)cc1CCN2 | 2.18 µM (inactive) |
| CN(C)CCNC(=O)c1cccc2[nH]c(-c3ccc(Cl)cc3)nc12 | 3.2 µM (inactive) |
| COc1ccc(C2C(C)C(=O)C(C)C(c3ccc(OC)cc3)N2N=O)cc1 (centres undefined) | > 100 µM (inactive) |
| O=C(O)CNS(=O)(=O)c1ccc(NC(=O)Nc2ccccc2)cc1 | > 100 µM (inactive) |
| CO/C=C1\OC(=O)C=C1OC | > 100 µM (inactive) |
| Cc1c2cc[n+](Cc3ccc(I)cc3)cc2c(C)c2c1[nH]c1ccccc12 | 17.9 µM (inactive) |
| Cc1cccc2nc3c(C(=O)NCCN(C)C)cccc3cc12 | 0.474 µM (active) |
| CC(C)C1NC(=O)CC(c2ccccc2)N(N=O)C1c1ccccc1 (centres undefined) | 44.5 µM (inactive) |
| Cc1c2cc[n+](C)c(C)c2cc2c1[nH]c1ccccc12 | > 100 µM (inactive) |
| COc1cccc2c1C(=O)c1c(O)c3c(c(O)c1C2=O)C[C@@](O)(C(C)O)C[C@@H]3OC1CC(N)C(O)C(C)O1 (some centres undefined) | 36.6 µM (inactive) |
| CC(NCCS(=O)(=O)O)C(=O)O (centres undefined) | > 100 µM (inactive) |
| COc1cc(C2(c3ncc[nH]3)SSSCC2O)ccc1O (centres undefined) | 17.8 µM (inactive) |

Molecular target: T1, Corticotropin-releasing factor receptor 2/Corticotropin-releasing factor-binding protein
Assay: activators of CRF receptor 2 with binding protein – uHTS hits, confirmation (AID 602473)
Type: functional
Settings: read-out: EC50_Mean

| EC50 | SMILES |
| --- | --- |
| > 53 µM (inactive) | CSc1ccccc1NC(=O)c1cc(CC(C)C)on1 |
| > 53 µM (inactive) | Cc1cc(=O)n2nc(N3CCC(C(=O)Nc4c(F)c(F)c(F)c(F)c4F)CC3)sc2n1 |
| > 53 µM (inactive) | Cc1cc([N+](=O)[O-])c2ccccc2c1NS(=O)(=O)c1ccccc1 |
| > 53 µM (inactive) | O=C(COc1ccc(S(=O)(=O)NC2CCCCC2)cc1Cl)NCc1cccnc1 |
| > 53 µM (inactive) | Cc1ccc(C(=O)N(Cc2sccc2C)C2CCS(=O)(=O)C2)cc1 (centres undefined) |
| > 53 µM (inactive) | COc1cccc(CN2CCN(c3cccc(C(F)(F)F)c3)CC2)c1OC |
| > 53 µM (inactive) | COc1ccc(Cl)cc1C(=O)NNC(=O)COC(=O)c1cccs1 |

System: SN12K1
Assay: cells
Type: functional
Settings: Homo sapiens

| SMILES | GI50 |
| --- | --- |
| O=C1C2=C(C3=NCCc4c[nH]c1c43)c1c(Br)cc(Br)cc1CCN2 | 3.65 µM (inactive) |
| CN(C)CCNC(=O)c1cccc2[nH]c(-c3ccc(Cl)cc3)nc12 | 3.48 µM (inactive) |
| COc1ccc(C2C(C)C(=O)C(C)C(c3ccc(OC)cc3)N2N=O)cc1 (centres undefined) | 55.2 µM (inactive) |
| O=C(O)CNS(=O)(=O)c1ccc(NC(=O)Nc2ccccc2)cc1 | > 100 µM (inactive) |
| CO/C=C1\OC(=O)C=C1OC | > 100 µM (inactive) |
| Cc1c2cc[n+](Cc3ccc(I)cc3)cc2c(C)c2c1[nH]c1ccccc12 | 0.208 µM (active) |
| Cc1cccc2nc3c(C(=O)NCCN(C)C)cccc3cc12 | 0.711 µM (active) |
| CC(C)C1NC(=O)CC(c2ccccc2)N(N=O)C1c1ccccc1 (centres undefined) | > 89.9 µM (inactive) |
| Cc1c2cc[n+](C)c(C)c2cc2c1[nH]c1ccccc12 | 2.21 µM (inactive) |
| COc1cccc2c1C(=O)c1c(O)c3c(c(O)c1C2=O)C[C@@](O)(C(C)O)C[C@@H]3OC1CC(N)C(O)C(C)O1 (some centres undefined) | 0.0891 µM (active) |
| CC(NCCS(=O)(=O)O)C(=O)O (centres undefined) | > 100 µM (inactive) |
| COc1cc(C2(c3ncc[nH]3)SSSCC2O)ccc1O (centres undefined) | 30.5 µM (inactive) |

System: P388
Assay: cells
Type: functional
Settings: Mus musculus

| SMILES | GI50 |
| --- | --- |
| O=C1C2=C(C3=NCCc4c[nH]c1c43)c1c(Br)cc(Br)cc1CCN2 | 2.13 µM (inactive) |
| CN(C)CCNC(=O)c1cccc2[nH]c(-c3ccc(Cl)cc3)nc12 | 2.48 µM (inactive) |
| O=C(O)CNS(=O)(=O)c1ccc(NC(=O)Nc2ccccc2)cc1 | > 100 µM (inactive) |
| CO/C=C1\OC(=O)C=C1OC | > 100 µM (inactive) |
| Cc1c2cc[n+](Cc3ccc(I)cc3)cc2c(C)c2c1[nH]c1ccccc12 | 0.1 µM (active) |
| Cc1cccc2nc3c(C(=O)NCCN(C)C)cccc3cc12 | 0.292 µM (active) |
| CC(C)C1NC(=O)CC(c2ccccc2)N(N=O)C1c1ccccc1 (centres undefined) | 70.1 µM (inactive) |
| Cc1c2cc[n+](C)c(C)c2cc2c1[nH]c1ccccc12 | 4.5 µM (inactive) |
| COc1cccc2c1C(=O)c1c(O)c3c(c(O)c1C2=O)C[C@@](O)(C(C)O)C[C@@H]3OC1CC(N)C(O)C(C)O1 (some centres undefined) | 0.191 µM (active) |
| CC(NCCS(=O)(=O)O)C(=O)O (centres undefined) | > 100 µM (inactive) |
| COc1cc(C2(c3ncc[nH]3)SSSCC2O)ccc1O (centres undefined) | 18.7 µM (inactive) |

System: not listed separately
Assay: off-target signal loss in HeLa-CEM21 co-culture – HeLa F-luc CTL cells, cherry-picked, counter-screen for HIV-1 Env fusion inhibitor project, dose response (AID 652040);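 also: potency for signal decrease marking cytotoxic or nonspecific inhibition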
Type: functional, cell-based
Settings: not given

| SMILES | AC50 |
| --- | --- |
| CC(=O)c1ccc([C@H]2C[C@@]34CN(C(=O)OC(C)(C)C)S(=O)(=O)[C@H]3C[C@H]2O4)cc1 | 36.6 µM (active) |

System: not listed separately
Assay: inhibitors of clade B AD8 Env fusion, dose response, cell-based, cherry-pick (AID 652062);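 also: luciferase signal from cell-cell fusion driven by HIV-1 clade B AD8 Env; potency is for inhibitors of fusion seen as a drop in luminescence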
Type: functional
Settings: not given

| SMILES | AC50 |
| --- | --- |
| Cc1ccc(S(=O)(=O)N(C)C[C@@H]2Oc3ccc(NS(=O)(=O)c4ccc(Cl)cc4)cc3C(=O)N([C@@H](C)CO)C[C@H]2C)cc1 | 3.2 µM (active) |

System: not listed separately
Assay: P. falciparum Dd2 growth inhibitors, dose response, SYBR Green, cherry-picked samples (AID 1159567)
Type: functional, cell-based
Settings: not given

| SMILES | AC50 |
| --- | --- |
| COc1ccc(-c2ccc([C@@H]3[C@H]4CN(C(=O)NC(C)C)CC(=O)N4[C@H]3CO)cc2)cc1 | 10 µM (active) |

Molecular target: Cytochrome P450 2D6 (Homo sapiens, UniProt P10635);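 also: CYP2D6 member of a cytochrome P450 panel assay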
Assay: not given
Settings: not given

Cytochrome P450 2D6, sequence (P10635 whole entry): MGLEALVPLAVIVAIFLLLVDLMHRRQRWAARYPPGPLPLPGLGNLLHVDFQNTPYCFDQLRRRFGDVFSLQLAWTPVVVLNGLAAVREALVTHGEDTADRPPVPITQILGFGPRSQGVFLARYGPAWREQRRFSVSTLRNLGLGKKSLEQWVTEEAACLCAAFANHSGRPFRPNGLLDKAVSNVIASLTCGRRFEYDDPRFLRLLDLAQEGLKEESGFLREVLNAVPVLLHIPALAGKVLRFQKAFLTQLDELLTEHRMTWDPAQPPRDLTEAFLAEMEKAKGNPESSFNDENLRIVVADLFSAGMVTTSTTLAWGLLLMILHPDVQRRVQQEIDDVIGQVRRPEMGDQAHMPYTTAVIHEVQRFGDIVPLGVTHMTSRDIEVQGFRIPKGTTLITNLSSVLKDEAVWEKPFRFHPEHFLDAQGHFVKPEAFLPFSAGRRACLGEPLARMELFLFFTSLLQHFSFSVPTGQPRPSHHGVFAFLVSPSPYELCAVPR

| AC50 | SMILES |
| --- | --- |
| 31.6 µM (inconclusive) | CC(C)NC[C@@H](O)COc1ccccc1-n1cccc1 |
| 10 µM (inconclusive) | [H]/N=C(/N)N/C(=N/[H])NCCc1ccccc1 [PHENFORMIN] |
| 22.4 µM (inconclusive) | CCCC1(C)Nc2ccccc2-c2nc3ccccc3n21 (centres undefined) |
| 20 µM (inconclusive) | COc1ccc(-n2c(=O)c(-c3cn(C)c4ccccc34)nc3cnc(N4CCNCC4)nc32)cc1 |
| 39.8 µM (inconclusive) | N#Cc1ccc(CN2CCC3(CC2)CCN(C(=O)c2cc(C(F)(F)F)cc(C(F)(F)F)c2)CC3)cc1 |

Molecular target: Cytochrome P450 3A4 (Homo sapiens, UniProt P08684);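 also: CYP3A4 tested as one member of a cytochrome P450 panel screen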
Assay: not given
Settings: not given

Cytochrome P450 3A4, sequence (P08684 whole entry): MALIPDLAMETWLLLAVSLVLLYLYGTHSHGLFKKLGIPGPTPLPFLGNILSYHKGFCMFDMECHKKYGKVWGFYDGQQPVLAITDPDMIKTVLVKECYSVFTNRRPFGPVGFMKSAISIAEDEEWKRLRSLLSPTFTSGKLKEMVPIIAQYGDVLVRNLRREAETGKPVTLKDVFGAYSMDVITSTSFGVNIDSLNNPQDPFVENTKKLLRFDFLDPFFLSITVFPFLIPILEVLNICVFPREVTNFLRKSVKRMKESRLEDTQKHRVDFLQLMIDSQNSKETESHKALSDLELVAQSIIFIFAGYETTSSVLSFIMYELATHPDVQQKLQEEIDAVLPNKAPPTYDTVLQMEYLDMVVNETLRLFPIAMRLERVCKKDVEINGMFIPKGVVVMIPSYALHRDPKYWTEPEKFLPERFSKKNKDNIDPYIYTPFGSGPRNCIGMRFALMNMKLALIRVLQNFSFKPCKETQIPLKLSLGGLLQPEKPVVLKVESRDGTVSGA

| AC50 | SMILES |
| --- | --- |
| 20 µM (inconclusive) | COc1ccc(-n2c(=O)c(-c3cn(C)c4ccccc34)nc3cnc(N4CCNCC4)nc32)cc1 |

Molecular target: Cytochrome P450 2C9 (Homo sapiens, UniProt P11712)
Assay: not given
Settings: not given

Cytochrome P450 2C9, sequence (P11712 whole entry): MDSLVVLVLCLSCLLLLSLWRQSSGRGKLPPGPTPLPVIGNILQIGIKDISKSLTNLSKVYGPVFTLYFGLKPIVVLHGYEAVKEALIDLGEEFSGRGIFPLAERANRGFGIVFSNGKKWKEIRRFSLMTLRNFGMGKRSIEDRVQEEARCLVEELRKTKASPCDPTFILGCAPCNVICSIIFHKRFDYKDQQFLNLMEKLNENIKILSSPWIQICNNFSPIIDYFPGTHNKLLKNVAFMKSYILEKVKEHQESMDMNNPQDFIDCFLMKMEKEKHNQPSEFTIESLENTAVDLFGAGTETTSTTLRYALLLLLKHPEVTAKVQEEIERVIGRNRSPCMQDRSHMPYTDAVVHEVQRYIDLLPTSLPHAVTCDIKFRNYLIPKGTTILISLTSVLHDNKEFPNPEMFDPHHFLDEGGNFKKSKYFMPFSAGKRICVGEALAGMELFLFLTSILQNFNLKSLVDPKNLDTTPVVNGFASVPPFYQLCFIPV

| AC50 | SMILES |
| --- | --- |
| 39.8 µM (inconclusive) | COc1ccc(-n2c(=O)c(-c3cn(C)c4ccccc34)nc3cnc(N4CCNCC4)nc32)cc1 |

Reference: ChEMBL document CHEMBL1201862, “PubChem BioAssay data set” (2004)
